Laboratory results: patent US20250346600A1, “TRICYCLIC DERIVATIVES AND RELATED USES” (MOMA Therapeutics, Inc., priority 2023, published 2025)

Experiments:
HT29 cells = assay: HT29 (MSS) 7 day viability, CellTiter Glo; type: cell-based; details: Homo sapiens, HT-29, 168 h, 7 days, read-out: HT29 (MSS) Viability 7 Day CTGAbs AC50
Method in brief: (§1)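 HCT116 (50 cells/well) or HT29 (500 cells/well) exposed 7 days at 37° C, 5% CO2, to 10-point 3-fold compound dilutions. Viability measured by CellTiter Glo luminescence, background from cell-free wells; IC50 from four-parameter logistic fit, geometric mean of at least 2 replicates.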

[1] = biological target: T1, Full length WRN protein (aa 2-1432) (Homo sapiens (Human), UniProt Q14191); assay: WRN ATPase ADP-Glo biochemical assay, Assay Format A (10 μM ATP); details: 0.25 nM WRN, 100 nM C6.18 ssDNA, 30 min preincubation, read-out: ATPase ADPGlo AC50 (uM)- Assay Format A
T1 sequence (Q14191 2-1432): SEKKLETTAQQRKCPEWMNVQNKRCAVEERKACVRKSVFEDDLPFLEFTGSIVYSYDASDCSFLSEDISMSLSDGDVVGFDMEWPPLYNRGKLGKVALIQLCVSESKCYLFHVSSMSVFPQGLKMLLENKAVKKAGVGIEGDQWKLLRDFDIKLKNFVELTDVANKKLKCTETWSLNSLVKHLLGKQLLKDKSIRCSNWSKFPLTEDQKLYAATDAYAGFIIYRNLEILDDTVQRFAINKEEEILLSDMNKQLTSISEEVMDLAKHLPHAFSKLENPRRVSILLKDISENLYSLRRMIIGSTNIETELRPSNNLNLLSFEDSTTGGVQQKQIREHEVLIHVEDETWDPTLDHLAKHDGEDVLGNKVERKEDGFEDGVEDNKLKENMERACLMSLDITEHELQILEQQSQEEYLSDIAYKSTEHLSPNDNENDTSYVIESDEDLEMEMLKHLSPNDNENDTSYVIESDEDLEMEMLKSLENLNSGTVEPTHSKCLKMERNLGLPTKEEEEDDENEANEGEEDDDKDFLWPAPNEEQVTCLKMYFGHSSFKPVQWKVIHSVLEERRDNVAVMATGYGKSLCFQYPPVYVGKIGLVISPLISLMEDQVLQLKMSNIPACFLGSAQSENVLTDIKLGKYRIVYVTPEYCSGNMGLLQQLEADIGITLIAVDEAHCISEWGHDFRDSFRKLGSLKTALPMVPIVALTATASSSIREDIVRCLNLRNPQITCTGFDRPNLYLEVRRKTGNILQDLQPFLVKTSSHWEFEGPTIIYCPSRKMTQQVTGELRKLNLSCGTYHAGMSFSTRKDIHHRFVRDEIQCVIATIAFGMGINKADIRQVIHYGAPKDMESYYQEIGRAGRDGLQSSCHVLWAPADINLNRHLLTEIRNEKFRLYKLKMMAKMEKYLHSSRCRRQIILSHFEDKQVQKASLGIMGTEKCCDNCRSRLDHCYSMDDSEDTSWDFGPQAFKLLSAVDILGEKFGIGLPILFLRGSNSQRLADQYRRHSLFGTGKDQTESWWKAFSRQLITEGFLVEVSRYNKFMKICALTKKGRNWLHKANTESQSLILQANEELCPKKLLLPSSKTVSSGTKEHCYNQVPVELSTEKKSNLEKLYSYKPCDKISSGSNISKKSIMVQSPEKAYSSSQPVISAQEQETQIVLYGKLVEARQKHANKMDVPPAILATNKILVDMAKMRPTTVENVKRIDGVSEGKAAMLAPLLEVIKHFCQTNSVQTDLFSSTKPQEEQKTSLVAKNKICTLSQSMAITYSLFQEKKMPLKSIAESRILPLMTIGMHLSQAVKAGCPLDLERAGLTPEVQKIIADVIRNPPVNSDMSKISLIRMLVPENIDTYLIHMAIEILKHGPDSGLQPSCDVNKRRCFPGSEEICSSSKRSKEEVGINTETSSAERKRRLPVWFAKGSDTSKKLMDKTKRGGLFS
Description: Full length Werner helicase construct (Uniprot: Q14191) with an N-terminal FLAG-AVI-TEV tag was expressed using the Sf9 cell/baculovirus expression system. The harvested cell pellet was resuspended and lysed in a glass homogenizer. After insoluble material was removed by centrifugation, the helicase protein was first purified with FLAG affinity resin and then further purified through a size-exclusion chromatography column. Peak fractions containing the purified protein were concentrated, split into aliquots and frozen in liquid nitrogen to be thawed before use. Biochemical Assay Description (ATPase activity)-Assay Format A WRN activity was measured using an ATPase assay. Full length WRN protein (aa 2-1432) (production described separately) was used for the biochemical activity assays. The 39-mer ssDNA “C6.18” [NT] was purchased from IDT and used as a substrate. Quantification of ATP hydrolysis was evaluated using the ADP-Glo assay kit (Promega, Madison, WI). An enzyme titration time-course was performed to determine the optimal assay conditions. […] To evaluate the inhibitory effects of the compounds, 11-point 3-fold serial dilutions were prepared in DMSO. 50 nL of each concentration in duplicate was preincubated for 30 minutes in a 384-well microplate (Greiner #784075) with 5 μL of 0.5 nM WRN in assay buffer. The reaction was initiated by adding 5 μL of 200 nM C6.18 DNA with 20 μM ATP and was allowed to proceed for 30 minutes at room temperature. The reaction was stopped with 10 μL ADP-Glo reagent for 1 hour to remove unreacted ATP. Lastly, 20 μL ATP detection reagent was added and incubated for 1 hour to generate the luminescence signal. Control wells included “high controls” with no inhibition (DMSO, no compound) and “low controls” with maximum inhibition (no WRN). Luminescence was recorded on a PHERAstar (BMG Labtech, Ortenberg, Germany). Data was fit using the “Smart Fit” method within the Genedata Screener Software (Basel, Switzerland) to obtain IC50 values using four-parameter fits. Reported IC50s are the geometric means of at least two independent trials.

[2] = biological target: T1, Full length WRN protein (aa 2-1432); assay: WRN ATPase ADP-Glo biochemical assay, Assay Format B (100 μM ATP); details: 0.25 nM WRN, 100 nM C6.18 ssDNA, 60 min preincubation, read-out: ATPase ADPGlo AC50 (uM)- Assay Format B
HCT116 cells = assay: HCT116 (MSI) 7 day viability, CellTiter Glo; type: cell-based; details: Homo sapiens, HCT-116, 168 h, 7 days, read-out: HCT116 (MSI) Viability 7 Day Abs AC50
Method in brief: as §1

| AC50 [1] [µM] | AC50 [2] [µM] | SMILES | AC50 (HT29 cells) [nM] | AC50 (HCT116 cells) [nM] |
| --- | --- | --- | --- | --- |
| < 0.0015 | 0.0015 to 0.005 | C=CC(=O)N1CCc2nn(-c3ccc(C4CCC4)cc3O)c3c2C(C1)N(C(=O)c1ncc(Br)c2[nH]cnc12)CC3 (centres unmarked) [Compound 95, 1-(5-(7-bromo-1H-imidazo[4,5-c]pyridine-4-carbonyl)-2-(4-cyclobutyl-2-hydroxyphenyl)-2,3,4,5,5a,6,8,9-octahydro-7H-1,2,5,7-tetraazabenzo[cd]azulen-7-yl)prop-2-en-1-one] | > 3000 | 1 to 100 |
| 0.0015 to 0.005 | 0.015 to 0.055 | C=CC(=O)N1CCc2nn(-c3ccc(C(C)C)c(F)c3N)c3c2C(C1)N(C(=O)c1cnc(C(F)(F)F)c(O)c1)CC3 (centres unmarked) [Compound 57, 1-(2-(2-amino-3-fluoro-4-isopropylphenyl)-5-(5-hydroxy-6-(trifluoromethyl)nicotinoyl)-2,3,4,5,5a,6,8,9-octahydro-7H-1,2,5,7-tetraazabenzo[cd]azulen-7-yl)prop-2-en-1-one] | > 3000 | 100 to 250 |
| 0.0015 to 0.005 | > 0.055 | C=CC(=O)N1CCc2nn(-c3ccc(C4CCC4)cc3O)c3c2C(C1)N(C(=O)c1cnc(Br)c(OC(F)(F)F)c1)CC3 (centres unmarked) [Compound 62, 1-(5-(6-bromo-5-(trifluoromethoxy)nicotinoyl)-2-(4-cyclobutyl-2-hydroxyphenyl)-2,3,4,5,5a,6,8,9-octahydro-7H-1,2,5,7-tetraazabenzo[cd]azulen-7-yl)prop-2-en-1-one] | > 3000 | 100 to 250 |
| 0.0015 to 0.005 | 0.015 to 0.055 | C=CC(=O)N1CCOc2nn(-c3ccc(C4CCC4)cc3)c3c2C(C1)N(C(=O)c1ccc(Br)c2[nH]cnc12)CC3 (centres unmarked) [Compound 41, 1-(5-(7-bromo-1H-benzo[d]imidazole-4-carbonyl)-2-(4-cyclobutylphenyl)-2,3,4,5,5a,6,8,9-octahydro-7H-10-oxa-1,2,5,7-tetraazacycloocta[cd]inden-7-yl)prop-2-en-1-one] | > 3000 | 1 to 100 |
| 0.0015 to 0.005 | 0.005 to 0.015 | C=CC(=O)N1CCc2nn(-c3ccc(C4CC4)cc3)c3c2C(C1)N(C(=O)c1ccc(C(F)(F)F)nc1N)CC3 (centres unmarked) [Compound 67, 1-(5-(2-amino-6-(trifluoromethyl)nicotinoyl)-2-(4-cyclopropylphenyl)-2,3,4,5,5a,6,8,9-octahydro-7H-1,2,5,7-tetraazabenzo[cd]azulen-7-yl)prop-2-en-1-one] | > 3000 | 1 to 100 |
| 0.0015 to 0.005 | > 0.055 | C=CC(=O)N1CCc2nn(-c3ccc(C(C)C)cc3)c3c2C(C1)N(C(=O)c1ccc(Br)c(-c2cc[nH]n2)c1)CC3 (centres unmarked) [Compound 106, 1-(5-(4-bromo-3-(1H-pyrazol-3-yl)benzoyl)-2-(4-isopropylphenyl)-2,3,4,5,5a,6,8,9-octahydro-7H-1,2,5,7-tetraazabenzo[cd]azulen-7-yl)prop-2-en-1-one] | > 3000 | 250 to 500 |
| < 0.0015 | 0.015 to 0.055 | C=CC(=O)N1CCc2nn(-c3ccc(C4CC4)cc3O)c3c2C(C1)N(C(=O)c1cc(F)c(C(F)(F)F)nc1N)CC3 (centres unmarked) [Compound 200, 1-(5-(2-amino-5-fluoro-6-(trifluoromethyl)nicotinoyl)-2-(4-cyclopropyl-2-hydroxyphenyl)-2,3,4,5,5a,6,8,9-octahydro-7H-1,2,5,7-tetraazabenzo[cd]azulen-7-yl)prop-2-en-1-one] | > 3000 | 1 to 100 |
| < 0.0015 | 0.0015 to 0.005 | C=CC(=O)N1CCc2nn(-c3ccc(C4CCC4)cc3)c3c2C(C1)N(C(=O)c1ccc(Br)c2[nH]nc(N)c12)CC3 (centres unmarked) [Compound 158, 1-(5-(3-amino-7-bromo-1H-indazole-4-carbonyl)-2-(4-cyclobutylphenyl)-2,3,4,5,5a,6,8,9-octahydro-7H-1,2,5,7-tetraazabenzo[cd]azulen-7-yl)prop-2-en-1-one] | > 3000 | 1 to 100 |
| 0.0015 to 0.005 | 0.015 to 0.055 | C=CC(=O)N1CCOc2nn(-c3ccc(C(C)C)cc3O)c3c2C(C1)N(C(=O)c1cnc(C(F)(F)F)c(O)c1)CC3 (centres unmarked) [Compound 45, 1-(2-(2-hydroxy-4-isopropylphenyl)-5-(5-hydroxy-6-(trifluoromethyl)nicotinoyl)-2,3,4,5,5a,6,8,9-octahydro-7H-10-oxa-1,2,5,7-tetraazacycloocta[cd]inden-7-yl)prop-2-en-1-one] | > 3000 | > 1000 |
| < 0.0015 | 0.005 to 0.015 | C=CC(=O)N1CCc2nn(-c3ccc(C4CCC4)cc3)c3c2C(C1)N(C(=O)c1cnc(C(F)(F)F)c(O)c1)CC3 (centres unmarked) [Compound 26, 1-(2-(4-cyclobutylphenyl)-5-(5-hydroxy-6-(trifluoromethyl)nicotinoyl)-2,3,4,5,5a,6,8,9-octahydro-7H-1,2,5,7-tetraazabenzo[cd]azulen-7-yl)prop-2-en-1-one] | > 3000 | 1 to 100 |
| < 0.0015 | 0.005 to 0.015 | C=CC(=O)N1CCc2nn(-c3ccc(C4CCC4)cc3O)c3c2C(C1)N(C(=O)c1ccc(C(C)(F)F)nc1N)CC3 (centres unmarked) [Compound 155, 1-(5-(2-amino-6-(1,1-difluoroethyl)nicotinoyl)-2-(4-cyclobutyl-2-hydroxyphenyl)-2,3,4,5,5a,6,8,9-octahydro-7H-1,2,5,7-tetraazabenzo[cd]azulen-7-yl)prop-2-en-1-one] | > 3000 | 1 to 100 |
| > 0.055 | > 0.055 | C=CC(=O)N1CCc2nn(-c3ccc(C4CC4)cc3)c3c2C(C1)N(C(=O)c1ccc2c(c1)[nH]c(=O)n2C)CC3 (centres unmarked) [Compound 70, 5-(7-acryloyl-2-(4-cyclopropylphenyl)-3,4,5,5a,6,7,8,9-octahydro-2H-1,2,5,7-tetraazabenzo[cd]azulene-5-carbonyl)-1-methyl-1,3-dihydro-2H-benzo[d]imidazol-2-one] | > 3000 | > 1000 |
| < 0.0015 | 0.005 to 0.015 | C=CC(=O)N1CCc2nn(-c3ccc(C45CC(C4)C5)cc3)c3c2C(C1)N(C(=O)c1cnc(C(F)(F)F)cc1N)CC3 (centres unmarked) [Compound 133, 1-(5-(4-amino-6-(trifluoromethyl)nicotinoyl)-2-(4-(bicyclo[1.1.1]pentan-1-yl)phenyl)-2,3,4,5,5a,6,8,9-octahydro-7H-1,2,5,7-tetraazabenzo[cd]azulen-7-yl)prop-2-en-1-one] | > 3000 | 1 to 100 |
| < 0.0015 | 0.005 to 0.015 | C=CC(=O)N1CCc2nn(-c3ccc(C4CCC4)cc3O)c3c2C(C1)N(C(=O)c1ccc(OC(F)F)nc1)CC3 (centres unmarked) [Compound 74, 1-(2-(4-cyclobutyl-2-hydroxyphenyl)-5-(6-(difluoromethoxy)nicotinoyl)-2,3,4,5,5a,6,8,9-octahydro-7H-1,2,5,7-tetraazabenzo[cd]azulen-7-yl)prop-2-en-1-one] | > 3000 | 1 to 100 |
| < 0.0015 |  | C=CC(=O)N1CCc2nn(-c3ccc(C4CCC4)cc3O)c3c2C(C1)N(C(=O)c1ncc(C(F)(F)F)c2[nH]cnc12)CC3 (centres unmarked) [Compound 154, 1-(2-(4-cyclobutyl-2-hydroxyphenyl)-5-(7-(trifluoromethyl)-1H-imidazo[4,5-c]pyridine-4-carbonyl)-2,3,4,5,5a,6,8,9-octahydro-7H-1,2,5,7-tetraazabenzo[cd]azulen-7-yl)prop-2-en-1-one] | > 3000 | 1 to 100 |
| > 0.055 |  | CC(C)c1ccc(-n2nc3c4c2CCN(C(=O)c2ccc(Br)c5[nH]cnc25)C4CN(C(=O)C2=CCC2)CC3)cc1 (centres unmarked) [Compound 16, (7-bromo-1H-benzo[d]imidazol-4-yl)(7-(cyclobut-1-ene-1-carbonyl)-2-(4-isopropylphenyl)-2,3,4,5a,6,7,8,9-octahydro-5H-1,2,5,7-tetraazabenzo[cd]azulen-5-yl)methanone] | > 3000 | > 1000 |
